“Also recorded” adds a separate entry of the source.
What was measured:
[1] = system: testicular steroidogensis; assay: Inhibitory activity against testicular steroidogenesis in men in good health (seric LH, FSH and steroids by radioimmunoassay); assay type: in vivo
Description: The said product was administered intranasally at a dose of 500 μg in a few drops of distilled water at 8 A.M. on the third day of the test. For 2 days prior to the treatment and for 6 days after the treatment, samples of blood were taken daily at 8 A.M., 3 P.M. and 10 P.M. On the day of administration of the LH-RH agonist, blood samples were taken at 11 A.M. and 6 P.M.
The seric concentrations of LH and FSH were measured by radioimmuno-logic dosages with double antibodies and the antibodies for measuring LH and FSH were furnished by the National Pituitary Agency of N.I.H. in Bethesda, Md. The seric concentrations of steroids was measured by radioimmuno-logic dosages in which one ml of serum was extracted with ether and the steroids were separated on a LH-20 column before measuring with radioimmuno-logic dosages. The radioimmuno-logic dosage results were determined by a program derived from model II of Rodbard et al [Second Karolinska Symposium on Research Methods in Reproductive Endroerinology, Diczfalusky Editor, Copenhague (1970), p. 79-103]. The statistical significance was determined by the "multiple level test" of Duncan-Kramer [Kramer, Biometrics, Vol 12 (1956), p. 307]. The results are shown in the graphs on sheet 1 of the Figures filed herewith.

ovarian steroidogenosis = assay: Inhibitory activity on ovarian steroidogenesis in women (seric LH, FSH, progesterone, estradiol); assay type: in vivo; settings: for reduction of seric levels of progesterone compared to the controls: typical subject (sheet 3), 500 μg intranasal at 8 A.M. and 5 P.M.
Description: The study was conducted for 6 consecutive cycles consisting of 2 pretreatment cycles, 2 treatment cycles and 2 post-treatment cycles. […] Daily blood samples were taken between 4 and 6 P.M. to measure seric levels of LH, FSH, progesterone and estradiol which were determined by radioimmuno-logic tests with double antibodies. The antibodies to measure LH and FSH were furnished by the National Pituitory Agency of N.I.H. of Bethesda, Md.
Estradiol and progesterone were measured with highly specific antibodies developed against 7-(0-carboxymethyl)-oxime of estradiol and 12-(0-carboxymethyl)-oxime of progesterone, respectively [3H] 17β-estradiol and ^125 I-progesterone -12-[0-carboxymethyl)-oxime] used as tracers. The serum was extracted with benzene and the steroids were separated with a LH-20 column before the determination. The radioimmunological results were exploited by the program derived from model II of Rodbard and Lewald as in Example 1 and the statistical significance was measured by the multiple level test of Ducan-Kramer of Example 1. The results are shown in the graphs of sheets 3 to 5 of the Figures.

[2] = system: testicular steriodogenosis; assay: Inhibitory activity on testicular steroidogenesis in a patient with prostate cancer (plasmatic steroids); assay type: in vivo, human; settings: 500 μg intranasally twice a day
Source text: The results are reported in the graphs of sheet 2 of the Figures.

[3] = intranasal 500 μg, men, 3rd day following administration

CCNC(=O)[C@@H]1CCCN1C(=O)[C@H](CCCNC(=N)N)NC(=O)[C@H](CC(C)C)NC(=O)[C@@H](COC(C)(C)C)NC(=O)[C@H](Cc1ccc(O)cc1)NC(=O)[C@H](CO)NC(=O)[C@H](Cc1c[nH]c2ccccc12)NC(=O)[C@H](Cc1c[nH]cn1)NC(=O)[C@@H]1CCC(=O)N1 [D Ser (Tbu)^6 of Gly^10 LH-RH ethylamide, [D Ser (Tbu)^6 des.Gly NH2^10] LH-RH ethylamide]
effect on testicular steroidogenesis in man ([1]; intranasal 500 μg, men): inhibition of testicular steroidogenesis
seric concentration of 17-OH-progesterone relative to initial control values [1, 3]: 40%
seric concentration of testosterone relative to initial control values [1, 3]: 50%
LH and FSH plasmatic levels ([1]; intranasal 500 μg, men, day of administration): increase
seric concentration of pregnenolone, 17-OH-pregnenolone, progesterone, 17-OH-progesterone, Δ5-androstene-3β,17β-diol and testosterone ([1]; intranasal 500 μg, men, on the day of treatment): increased
level of testosterone/steroids on the fourth day after administration ([1]; single intranasal dose of 500 μg, fourth day after administration): returned to normal; also recorded: return to normal levels
duration of the drop of seric levels of testicular steroids (testosterone and its precursors) ([1]; single intranasal dose of 500 μg, human): 3 days
level of progesterone, pretreatment cycles as base of 100% (ovarian steroidogenosis; 12 cycles of post-treatment): 99%
level of progesterone, pretreatment cycles as base of 100% (ovarian steroidogenosis; 12 cycles of treatment): 46%
level of progesterone reduced as compared to the controls (ovarian steroidogenosis; 12 cycles of treatment (sheet 5), scale 13 to 127%): 46%
reduction of seric levels of progesterone compared to the controls (ovarian steroidogenosis; first cycle of treatment): 13%
reduction of seric levels of progesterone compared to the controls (ovarian steroidogenosis; second cycle of treatment): 34%
androgenic steroids (plasmatic) [2]: diminution
level of testosterone ([2]; two weeks of treatment): stabilized at a very low level

Source: patent US5389613A, “Method of treating prostate adenocarcinoma, prostate benign hypertrophia and endometriosis” (Roussel Uclaf, priority 1979, dated 1995)
